Source: ChEMBL document CHEMBL5303573, “Mapping human microbiome drug metabolism by gut bacteria and their genes” (Nature, 2019)

Columns and labels:
[1] = limosilactobacillus reuteri cf48-3a, 12 h, 2 µM
Description: The drug is tested on Lactobacillus reuteri CF48-3A strain: BEI HM-102 for biotransformation. The drug concentrations were measured before and after a 12-h incubation by liquid-chromatography-coupled mass spectrometry (LC–MS)

[2] = The drug is tested on Bacteroides fragilis strain: HMW615 for biotransformation. The drug concentrations were measured before and after a 12-h incubation by liquid-chromatography-coupled mass spectrometry (LC–MS); details: 2 µM
[3] = anaerostipes sp., 12 h, 2 µM
Description: The drug is tested on Anaerostipes sp. strain: fecal isolate for biotransformation. The drug concentrations were measured before and after a 12-h incubation by liquid-chromatography-coupled mass spectrometry (LC–MS)

[4] = The drug is tested on Bacteroides finegoldii strain: DSM17565 for biotransformation. The drug concentrations were measured before and after a 12-h incubation by liquid-chromatography-coupled mass spectrometry (LC–MS); details: 2 µM
[5] = bacteroides thetaiotaomicron, 12 h, 2 µM
Description: The drug is tested on Bacteroides thetaiotaomicron strain: 3731 for biotransformation. The drug concentrations were measured before and after a 12-h incubation by liquid-chromatography-coupled mass spectrometry (LC–MS)

[6] = akkermansia muciniphila, 12 h, 2 µM
Description: The drug is tested on Akkermansia muciniphila strain: ATCC BAA-835 for biotransformation. The drug concentrations were measured before and after a 12-h incubation by liquid-chromatography-coupled mass spectrometry (LC–MS)

[7] = bacteroides intestinalis, 12 h, 2 µM
Description: The drug is tested on Bacteroides intestinalis strain: DSM17393 for biotransformation. The drug concentrations were measured before and after a 12-h incubation by liquid-chromatography-coupled mass spectrometry (LC–MS)

[8] = The drug is tested on Ruminococcus lactaris strain: ATCC29176 for biotransformation. The drug concentrations were measured before and after a 12-h incubation by liquid-chromatography-coupled mass spectrometry (LC–MS); details: 2 µM
[9] = The drug is tested on Providencia stuartii strain: ATCC25827 for biotransformation. The drug concentrations were measured before and after a 12-h incubation by liquid-chromatography-coupled mass spectrometry (LC–MS); details: 2 µM
[10] = The drug is tested on Bacteroides sp. WH2 strain: WH2 for biotransformation. The drug concentrations were measured before and after a 12-h incubation by liquid-chromatography-coupled mass spectrometry (LC–MS); details: bacteroides sp. wh2, 12 h, 2 µM
[11] = The drug is tested on Bifidobacterium longum subsp. Infantis strain: CCUG52486 for biotransformation. The drug concentrations were measured before and after a 12-h incubation by liquid-chromatography-coupled mass spectrometry (LC–MS); details: 2 µM
[12] = The drug is tested on Bacteroides caccae strain: ATCC43185 for biotransformation. The drug concentrations were measured before and after a 12-h incubation by liquid-chromatography-coupled mass spectrometry (LC–MS); details: 2 µM
[13] = The drug is tested on Parabacteroides merdae strain: ATCC43184 for biotransformation. The drug concentrations were measured before and after a 12-h incubation by liquid-chromatography-coupled mass spectrometry (LC–MS); details: 2 µM
[14] = segatella copri, 12 h, 2 µM
Description: The drug is tested on Prevotella copri strain: DSM18205 for biotransformation. The drug concentrations were measured before and after a 12-h incubation by liquid-chromatography-coupled mass spectrometry (LC–MS)

[15] = parabacteroides johnsonii, 12 h, 2 µM
Description: The drug is tested on Parabacteroides johnsonii strain: DSM18315 for biotransformation. The drug concentrations were measured before and after a 12-h incubation by liquid-chromatography-coupled mass spectrometry (LC–MS)

[16] = The drug is tested on Odoribacter splanchnicus strain: fecal isolate for biotransformation. The drug concentrations were measured before and after a 12-h incubation by liquid-chromatography-coupled mass spectrometry (LC–MS); details: 2 µM
[17] = The drug is tested on Eubacterium ventriosum strain: ATCC27560 for biotransformation. The drug concentrations were measured before and after a 12-h incubation by liquid-chromatography-coupled mass spectrometry (LC–MS); assay type: ADME; design: dose 2 uM, timepoint 0 vs 12 hours; details: 2 µM
[18] = parabacteroides distasonis, 12 h, 2 µM
Description: The drug is tested on Parabacteroides distasonis strain: ATCC8503 for biotransformation. The drug concentrations were measured before and after a 12-h incubation by liquid-chromatography-coupled mass spectrometry (LC–MS)

[19] = The drug is tested on Blautia luti strain: DSM14534 for biotransformation. The drug concentrations were measured before and after a 12-h incubation by liquid-chromatography-coupled mass spectrometry (LC–MS); assay type: ADME; design: dose 2 uM, timepoint 0 vs 12 hours; details: 2 µM
[20] = The drug is tested on Anaerococcus hydrogenalis strain: DSM7454 for biotransformation. The drug concentrations were measured before and after a 12-h incubation by liquid-chromatography-coupled mass spectrometry (LC–MS); details: 2 µM

Structure (SMILES)	Bacterial Biotransformation [1]	Bacterial Biotransformation [2]	Bacterial Biotransformation [3]	Bacterial Biotransformation [4]	Bacterial Biotransformation [5]	Bacterial Biotransformation [6]	Bacterial Biotransformation [7]	Bacterial Biotransformation [8]	Bacterial Biotransformation [9]	Bacterial Biotransformation [10]	Bacterial Biotransformation [11]	Bacterial Biotransformation [12]	Bacterial Biotransformation [13]	Bacterial Biotransformation [14]	Bacterial Biotransformation [15]	Bacterial Biotransformation [16]	Bacterial Biotransformation [17]	Bacterial Biotransformation [18]	Bacterial Biotransformation [19]	Bacterial Biotransformation [20]
C[C@@H]1CC[C@H]2[C@@H](C)C(=O)O[C@@H]3O[C@@]4(C)CC[C@@H]1[C@]32OO4 [ARTEMISININ]	Compound metabolized	Compound metabolized	Compound metabolized	Compound metabolized	Compound metabolized	Compound metabolized	Compound metabolized	Compound metabolized	Compound metabolized	Compound metabolized	Compound metabolized	Compound metabolized	Compound metabolized	Compound metabolized	Compound metabolized	Compound metabolized	Compound metabolized	Compound metabolized	Compound metabolized	Compound metabolized
NC12CC3CC(CC(C3)C1)C2 [AMANTADINE]	Compound NOT metabolized	Compound NOT metabolized	Compound NOT metabolized	Compound NOT metabolized	Compound NOT metabolized	Compound NOT metabolized		Compound NOT metabolized	Compound NOT metabolized	Compound NOT metabolized	Compound NOT metabolized	Compound NOT metabolized	Compound NOT metabolized	Compound NOT metabolized	Compound NOT metabolized	Compound NOT metabolized	Compound NOT metabolized	Compound NOT metabolized	Compound NOT metabolized	Compound NOT metabolized
CCOC(=O)[C@H](CCc1ccccc1)N[C@H]1CCc2ccccc2N(CC(=O)O)C1=O [BENAZEPRIL]	Compound NOT metabolized	Compound metabolized	Compound NOT metabolized	Compound metabolized	Compound metabolized	Compound NOT metabolized	Compound metabolized	Compound NOT metabolized	Compound NOT metabolized	Compound metabolized		Compound metabolized	Compound metabolized	Compound metabolized	Compound metabolized	Compound metabolized	Compound NOT metabolized	Compound metabolized		Compound NOT metabolized
